Measured values from patent US20100286101A1, “PHARMACEUTICAL COMPOSITION INCLUDING A CORTICOSTEROID AND A VITAMIN D ANALOG HAVING IMPROVED STABILITY” (priority 2009, published 2010).

Assay: Solvent attributes (dipolar, H-bonding, miscibility in mineral oil)
Format: physicochemical

| Dipolar | H-bonding | Miscibility in oil (mineral oil) | Molecule |
| --- | --- | --- | --- |
| Yes | Yes | No | CC(O)CO (stereo not drawn) [Propylene Glycol] |
| Yes | Yes | Yes | Sorbitan Sesquioleate |
| Yes | Yes | No | Polysorbate 80 |
